From patent publication US20090104598A1, “Dopamine D2 receptor gene variants” (CENTRE FOR ADDICTION AND MENTAL HEALTH, priority 2006, published 2009)

Legend:
clinical = conditions: human, in vivo
Description: Thus, % Score Change=(6 Month Score−Baseline Score)/(Baseline Score).

[1] = treatment refractory patients; Miller 1996; cited from earlier work

concentration at 6 month (clinical): 399 ng/mL
Compound: CN1CCN(C2=Nc3cc(Cl)ccc3Nc3ccccc32)CC1 [clozapine]
blood clozapine threshold level that increases likelihood of clinical response [1]: 350 ng/mL
